Tested on: Sphaerotheca fuliginea
Assay: Sphaerotheca test (cucumber)/preventive
Type: in vivo
Settings: preventive
Description: One day after this treatment, the plants are inoculated with an aqueous spore suspension of Sphaerotheca fuliginea.

In the case of `Cc1ccccc1-c1ccccc1NC(=O)c1c(C(F)F)nn(C)c1F` [102 from WO-2007/006806, 3-(difluoromethyl)-5-fluoro-1-methyl-N-(2′-methylbiphenyl-2-yl)-1H-pyrazole-4-carboxamide], the efficacy (Table A, dose 500 ppm) is reported as 20% and the efficacy (500 ppm of active ingredient, evaluated 7 days after inoculation) is reported as “less than 20%”.

Source: patent publication US9206137B2, “N-Aryl pyrazole(thio)carboxamides” (BAYER INTELLECTUAL PROPERTY GMBH, priority 2010, dated 2015)
